Common to all, as to type: in vivo
The subject of assay [1] is Adoxophyes orana fasciata. Put plainly: Test Example 4: spray on apple seedling, first-instar larvae of Adoxophyes orana fasciata. Particulars: 168 h, 500 ppm active ingredient, 20 ml spray on apple seedling, about 30 first-instar larvae, counted seven days after spraying, read-out: controlling value. On the procedure:
(§1) Then, it will be shown by Test Examples that the present compound is effective in controlling harmful arthropods. In the Test Example, controlling values were calculated by the following equation: Controlling value(%)={1−(Cb×Tai)/(Cai×Tb)}×100 wherein Cb: the number of worms in a non-treated section before treatment Cai: the number of worms in a non-treated section on observation Tb: the number of worms in a treated-section before treatment Tai: the number of worms in a treated-section on observation. Preparations of the test compounds obtained in Formulation Example 5 were diluted with water so that the active ingredient concentration became 500 ppm to prepare test spray solutions. At the same time, 20 ml of the test spray solution as described above was sprayed to an apple seedling (28 day-old seeding, tree height: about 15 cm) planted in a plastic cup. The apple seedling was air-dried to such an extent that the spray solution sprayed on the apple seedling was dried. About 30 first-instar larvae of Adoxophyes orana fasciata were released. Seven days after spraying, the number of worms surviving on the apple seedling was counted, and a controlling value was calculated by the above equation.

The subject of assay [2] is cotton aphids (Aphis gossypii). In words: Test Example 2: spray on cucumber infested with cotton aphids. Particulars: topical, 144 h, 500 ppm active ingredient, 20 ml/cup spray on cucumber, about 30 aphids, counted six days after spraying, read-out: controlling value. The method, then: as §1, with “time, cucumber was planted in a polyethylene cup, and was grown until the first true leaf was developed. About 30 cotton aphids were put on the cucumber. One day after,” for “time, 20 ml of”, “sprayed in” for “sprayed to”, “an amount of 20 ml/cup” for “an apple seedling (28 day-old seeding, tree height: about 15 cm) planted in a plastic cup. The apple seedling was air-dried to such an extent that the spray solution sprayed”, “the cucumber. Six” for “the apple seedling was dried. About 30 first-instar larvae of Adoxophyes orana fasciata were released. Seven”, “of cotton aphids (Aphis gossypii)” for “of worms surviving on the apple seedling”

Assay [3] concerns diamondback moths (Plutella xylostella). In words: Test Example 1: spray on cabbage, third-instar larvae of diamondback moths. Particulars: 20 ml/cup spray on cabbage, 10 third-instar larvae, counted after 5 days; for pest or weed control at 500 ppm: Plutella xylostella, 120 h, 500 ppm active ingredient, read-out: controlling value. The method, then:
Then, it will be shown by Test Examples that the present compound is effective in controlling harmful arthropods. In the Test Example, controlling values were calculated by the following equation: Controlling value(%)={1−(Cb×Tai)/(Cai×Tb)}×100 wherein Cb: the number of worms in a non-treated section before treatment Cai: the number of worms in a non-treated section on observation Tb: the number of worms in a treated-section before treatment Tai: the number of worms in a treated-section on observation. Preparations of the test compounds obtained in Formulation Example 5 were diluted with water so that the active ingredient concentration became 500 ppm, to prepare test spray solutions. At the same time, cabbage was planted in a polyethylene cup, and grown until the third true leaf or the fourth true leaf was developed. The test spray solution as described above was sprayed in an amount of 20 ml/cup on the cabbage. After the spray solution on the cabbage was dried, 10 third-instar larvae of diamondback moths (Plutella xylostella) were put on the cabbage. After 5 days, the number of diamondback moths was counted, and the controlling value was calculated by the above equation. Furthermore, preparations of the test compound (7) and a comparative compound of the formula [drawing 523] obtained in a formulation according to Formulation Example 5 were diluted with water so that the active ingredient concentration became 0.2 ppm, to prepare test spray solution. At the same time, cabbage was planted in a polyethylene cup, and grown until the third true leaf or the fourth true leaf was developed. The test spray solution as described above was sprayed in an amount of 20 ml/cup on the cabbage. After the spray solution on the cabbage was dried, 10 third-instar larvae of diamondback moths (Plutella xylostella) were put on the cabbage. After 5 days, the number of diamondback moths was counted, and the controlling value was calculated by the above equation.

In assay [4] the test system is Spodoptera litura. In words: Test Example 3: spray on cabbage, fourth-instar larvae of Spodoptera litura. The conditions noted are these: 120 h, 500 ppm active ingredient, 20 ml/cup spray on cabbage, 10 fourth-instar larvae, counted after 5 days, read-out: controlling value. The method, then:
Then, it will be shown by Test Examples that the present compound is effective in controlling harmful arthropods. In the Test Example, controlling values were calculated by the following equation: Controlling value(%)={1−(Cb×Tai)/(Cai×Tb)}×100 wherein Cb: the number of worms in a non-treated section before treatment Cai: the number of worms in a non-treated section on observation Tb: the number of worms in a treated-section before treatment Tai: the number of worms in a treated-section on observation. Preparations of the test compounds obtained in Formulation Example 5 were diluted with water so that the active ingredient concentration became 500 ppm to prepare test spray solutions. At the same time, cabbage was planted in a polyethylene cup, and grown until the third true leaf or the fourth true leaf was developed. The test spray solution as described above was sprayed in an amount of 20 ml/cup on the cabbage. After the spray solution sprayed on the cabbage was dried, 10 fourth-instar larvae of Spodoptera litura were put on the cabbage. After 5 days, the number of Spodoptera litura surviving on the cabbage leaves was counted, and a controlling value was calculated by the above equation.

Bounds are passed on as bounds.

`COC(=O)NNC(=O)c1cc(Cl)nc(Cl)c1NC(=O)c1cc(Br)nn1-c1ncccc1Cl` [Compound 1, N′-(3-{[5-bromo-2-(3-chloro-pyridin-2-yl)-2H-pyrazole-3-carbonyl]-amino}-2,6-dichloro-pyridine-4-carbonyl)-hydrazinecarboxylic acid methyl ester]: the pest or weed control at 500 ppm is not below 90% in assay [1], not below 90% in assay [2], not below 90% in assay [3] and not below 80% in assay [4].

As for `COC(=O)NNC(=O)c1nc(Cl)cc(C)c1NC(=O)c1cc(Br)nn1-c1ncccc1Cl` [Compound 7, N′-(3-{[5-bromo-2-(3-chloro-pyridin-2-yl)-2H-pyrazole-3-carbonyl]-amino}-6-chloro-4-methyl-pyridine-2-carbonyl)-hydrazinecarboxylic acid methyl ester], the pest or weed control at 500 ppm in assay [1] was not below 90%; in assay [2], not below 90%; in assay [3], not below 90%; in assay [4] it was not below 80%. In addition, the control value result in assay [3] (0.2 ppm active ingredient) was “more than 80%”.

In the case of `COC(=O)NNC(=O)c1cc(Cl)nc(C)c1NC(=O)c1cc(Br)nn1-c1ncccc1Cl` [Compound 3, N′-(3-{[5-bromo-2-(3-chloro-pyridin-2-yl)-2H-pyrazole-3-carbonyl]-amino}-6-chloro-2-methyl-pyridine-4-carbonyl)-hydrazinecarboxylic acid methyl ester], the pest or weed control at 500 ppm in assay [1] is not below 90%; in assay [2] it was not below 90%; in assay [3], not below 90%; in assay [4], not below 80%.

On to `COC(=O)NNC(=O)c1nc(Cl)cc(Br)c1NC(=O)c1cc(Br)nn1-c1ncccc1Cl` [Compound 15, N′-(4-bromo-3-{[5-bromo-2-(3-chloro-pyridin-2-yl)-2H-pyrazole-3-carbonyl]-amino}-6-chloro-pyridine-2-carbonyl)-hydrazine carboxylic acid methyl ester], for which the pest or weed control at 500 ppm in assay [1] is not below 90%; in assay [2], not below 90%; in assay [3], not below 90%; in assay [4], not below 80%.

For the origin of these results see patent US8247431B2, “Heterocyclic hydrazide compound and pesticidal use of the same” (Sumitomo Chemical Company, Limited, priority 2007, dated 2012).
